We go through twelve compounds from patent US20260209249A1, “NOVEL TRICYCLIC COMPOUND AS KRAS G12D INHIBITOR, AND USE THEREOF” (SK Biopharmaceuticals Co., priority 2022, published 2026).

In assay [1] the target is T1, GDP-KRAS G12D mutant protein (Homo sapiens, UniProt P01116, G12D).
T1 construct: purchased Daegu Gyeongbuk Medical Innovation Foundation (DGMIF), made to order
Description: Differential scanning fluorimetry (DSF) binding affinity to GDP-KRAS G12D mutant protein. The following applies: DSF thermal shift, 10 μM compound, 4 μg KRAS protein. The procedure, abridged: (§1)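 Thermal shift ΔTm was measured at 10 μM compound over a 25–99 °C ramp (0.05 °C/s), read at 580 nm ex/623 nm em with SYPRO Orange (2×). The protein (4 μg) was preincubated with compound for 30 min at room temperature, in 50 mM HEPES pH 7.5 for GppNHp-KRAS G12D or in kit buffer for GDP-KRAS G12D.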

The target of assay [2] is T2, GppNHp-KRAS G12D mutant protein (Homo sapiens, UniProt P01116, G12D).
T2 construct: purchased Daegu Gyeongbuk Medical Innovation Foundation (DGMIF), made to order
Description: Differential scanning fluorimetry (DSF) binding affinity to GppNHp-KRAS G12D mutant protein. Conditions: DSF thermal shift, 10 μM compound, 4 μg KRAS protein, 50 mM HEPES (pH 7.5). In short, it runs like this:
as §1
A general note: DSF heats the sample and reads unfolding from a dye or from intrinsic fluorescence.

In assay [3] the test system is ERK phosphorylation (pERK) induced by KRAS G12D mutation. Put plainly: Inhibitory activity against ERK phosphorylation (pERK) induced by KRAS G12D mutation, immunofluorescence assay in AsPC-1 cells. It counts as cell-based. The following applies: Homo sapiens, ASPC1, 3 h drug treatment, pERK (Thr202/Tyr204) signal normalized to DAPI. The text has this:
Test Example 2: Measurement of Inhibitory Activity Against ERK Phosphorylation (pERK) Induced by KRAS G12D Mutation (Immunofluorescence Assay)
Immunofluorescence is a method used to detect specific substances within cells or tissues through antigen-antibody interactions, and allows for the identification of the presence or absence of specific proteins by using antibodies labeled with various fluorescent dyes. After a primary antibody that recognizes a specific protein selectively binds to the epitope, a fluorescent antibody (secondary antibody) is bound to the primary antibody.
It was confirmed as follows that the compounds according to an embodiment of the present application inhibit phosphorylation of extracellular signal-regulated kinases (Phospho-ERK, pERK) induced by KRAS G12D mutation.
AsPC-1 cells were seeded at a density of 10,000 cells/well in RPMI-1640 medium containing 10% FBS and 1% Penicillin-Streptomycin in 384-well plates (Perkinelmer, #6057300) and allowed to attach for 16 h. After the cells attached to the plate, the cells were treated with drugs at a maximum concentration of 10 μM with a 3-fold serial dilution. After 3 h of drug treatment, the medium was removed and the cells were treated with 50 μL of 4% formaldehyde (Biosesang, #PC2031-050-00) for 20 min and washed three times with 50 μL of phosphate buffered saline (PBS).
50 μL of PBS containing 0.3% Triton X-100 (Sigma, #T8787-250 mL) was added and reacted for 20 minutes to allow antibody penetration into cells, and then the plate was washed three times with 50 μL of PBS. To block nonspecific binding of antibodies to the plate, 50 μL of PBS containing 2% BSA (sigma, #A7906-500G) and 0.01% Tween-20 (Sigma, #P1379-500 mL) (hereinafter referred to as PBS-T) was added, and reacted at room temperature for 2 hours.
To detect pERK, the primary antibody (cell signaling, #9101) was diluted 1:500 in PBS-T containing 2% BSA, 50 μL was added, and the plate was stored in a refrigerator at 4° C. for 16 hours to react, followed by washing three times with 50 μL of PBS-T. To visualize the primary antibody, the secondary antibody, i.e., anti-rabbit-Alexa Fluor 488 (ThermoFisher, #A11008), was diluted 1:1000 in PBS-T containing 2% BSA, 50 μL was added, and after reaction at room temperature for 1 hour, the plate was washed three times with 50 μL of PBS-T. Next, to visualize the nuclei of cells, DAPI (Thermofisher, #62248, 1 mg/mL) was diluted 1:1000 in PBS-T, 50 μL each was added, reacted at room temperature for 10 minutes, and washed three times with 50 μL of PBS-T. 50 μL of PBS-T was added to each well, and the plate was read for fluorescence value using HCS equipment (MOLECULAR DEVICES/ImageXpress Micro).
Data analysis was performed by normalizing the pERK (Thr202/Tyr204) signal to the DAPI signal and calculating the percentage relative to the DMSO as a control. The IC50 value was determined by fitting a four-parameter dose-response curve using the GraphPad Prism software (version 8.4.3), and interpolating the concentration at which 50% inhibition occurred. The results of calculating the inhibitory efficacy of the compounds according to one embodiment of the present application against KRAS G12D mutation-induced pERK activity are shown in Table 3.

Consider `C#Cc1c(F)ccc2cc(O)cc(-c3cc4nc(OCC5(CN6C[C@H]7C[C@@H]6CO7)CC5)nc(N5C[C@H]6CC[C@@H](C5)N6)c4n4ccnc34)c12` [Example 10, 4-(3-((1-(((1 R,4R)-2-oxa-5-azabicyclo[2.2.1]heptan-5-yl)methyl)cyclopropyl)methoxy)-1-((1 R,5S)-3,8-diazabicyclo[3.2.1]octan-3-yl)imidazo[1′,2′:1,6]pyrido[3,2-d]pyrimidin-6-yl)-5-ethynyl-6-fluoronaphthalen-2-ol], for which the “GDP-KRAS G12D (ΔTmD, ° C.)” value in assay [1] amounted to 9.00 °C. Moreover, the “GppNHp-KRAS G12D (ΔTmD, ° C.)” value in assay [2] came out at 2.79 °C. Besides, the midpoint of inhibition in assay [3], the IC50, lay at 2.1 µM.

As for `C#Cc1c(F)ccc2cc(N)cc(-c3cc4nc(OC[C@@]56CCCN5C[C@H](F)C6)nc(N5C[C@H]6CC[C@@H](C5)N6)c4c4cn(C)nc34)c12` [Example 71, 4-(9-((1R,5S)-3,8-diazabicyclo[3.2.1]octan-3-yl)-7-(((2R,7aS)-2-fluorotetrahydro-1H-pyrrolizin-7a(5H)-yl)methoxy)-2-methyl-2H-pyrazolo[4,3-f]quinazolin-4-yl)-5-ethynyl-6-fluoronaphthalen-2-amine], the “GDP-KRAS G12D (ΔTmD, ° C.)” value in assay [1] was determined as 8.14 °C. Besides, the “GppNHp-KRAS G12D (ΔTmD, ° C.)” value in assay [2] came to 4.88 °C. Also, the IC50 in assay [3] was determined as 0.512 µM.

Consider `C#Cc1c(F)ccc2cc(O)cc(-c3cc4nc(OC[C@@]56CCCN5C[C@H](F)C6)nc(NCC5(N(C)C)CCC5)c4n4ccnc34)c12` [Example 6, 4-(1-(((1-(dimethylamino)cyclobutyl)methyl)amino)-3-(((2R,7aS)-2-fluorotetrahydro-1H-pyrrolizin-7a(5H)-yl)methoxy)imidazo[1′,2′:1,6]pyrido[3,2-d]pyrimidin-6-yl)-5-ethynyl-6-fluoronaphthalen-2-ol], for which the IC50 in assay [3] turned out to be 2.32 µM.

For `C#Cc1c(F)ccc2cc(O)cc(-c3cc4nc(OCC5(CN6CCCC6)CC5)nc(N5[C@@H]6CC[C@H]5CNC6)c4n4ccnc34)c12` [Example 17, 4-(1-((1R,5S)-3,8-diazabicyclo[3.2.1]octan-8-yl)-3-((1-(pyrrolidin-1-ylmethyl)cyclopropyl)methoxy)imidazo[1′,2′:1,6]pyrido[3,2-d]pyrimidin-6-yl)-5-ethynyl-6-fluoronaphthalen-2-ol], the “GDP-KRAS G12D (ΔTmD, ° C.)” value in assay [1] came out at 9.45 °C. In assay [2], the “GppNHp-KRAS G12D (ΔTmD, ° C.)” value is 4.71 °C. This compound returned an IC50 in assay [3] of 1.17 µM.

As for `Cn1cc2c(n1)c(-c1cc(O)cc3ccc(F)c(F)c13)cc1nc(OC[C@@]34CCCN3C[C@H](F)C4)nc(N3C[C@H]4CC[C@@H](C3)N4)c12` [Example 70, 4-(9-((1R,5S)-3,8-diazabicyclo[3.2.1]octan-3-yl)-7-(((2R,7aS)-2-fluorotetrahydro-1H-pyrrolizin-7a(5H)-yl)methoxy)-2-methyl-2H-pyrazolo[4,3-f]quinazolin-4-yl)-5,6-difluoronaphthalen-2-ol], in assay [1], the “GDP-KRAS G12D (ΔTmD, ° C.)” value worked out at 6.34 °C. Also, the “GppNHp-KRAS G12D (ΔTmD, ° C.)” value in assay [2] was determined as 3.38 °C. The same compound had an IC50 in assay [3] of 0.735 µM.

As for `Cn1cc2c(n1)c(-c1cc(O)cc3ccccc13)cc1nc(OC[C@@]34CCCN3C[C@H](F)C4)nc(N3C[C@H]4CC[C@@H](C3)N4)c12` [Example 68, 4-(9-((1R,5S)-3,8-diazabicyclo[3.2.1]octan-3-yl)-7-(((2R,7aS)-2-fluorotetrahydro-1H-pyrrolizin-7a(5H)-yl)methoxy)-2-methyl-2H-pyrazolo[4,3-f]quinazolin-4-yl)naphthalen-2-ol], the “GDP-KRAS G12D (ΔTmD, ° C.)” value in assay [1] stood at 5.75 °C. For the same compound, the “GppNHp-KRAS G12D (ΔTmD, ° C.)” value in assay [2] was 1.90 °C. Inhibition in assay [3] was half-maximal at 9.02 µM (IC50).

On to `C#Cc1c(F)ccc2cc(O)cc(-c3cc4nc(OC[C@]56CCCN5CC(=C)C6)nc(N5[C@@H]6CC[C@H]5CNC6)c4n4ccnc34)c12` [Example 21, 4-(1-((1R,5S)-3,8-diazabicyclo[3.2.1]octan-8-yl)-3-(((R)-2-methylenetetrahydro-1H-pyrrolizin-7a(5H)-yl)methoxy)imidazo[1′,2′:1,6]pyrido[3,2-d]pyrimidin-6-yl)-5-ethynyl-6-fluoronaphthalen-2-ol], for which the “GDP-KRAS G12D (ΔTmD, ° C.)” value in assay [1] was 8.13 °C. Besides, the “GppNHp-KRAS G12D (ΔTmD, ° C.)” value in assay [2] was 4.72 °C. Also, the IC50 in assay [3] was 0.196 µM.

Consider `Oc1cc(-c2cc3nc(OC[C@@]45CCCN4C[C@H](F)C5)nc(N4C[C@H]5CC[C@@H](C4)N5)c3n3ccnc23)c2c(F)c(F)ccc2c1` [Example 3, 4-(1-((1 R,5S)-3,8-diazabicyclo[3.2.1]octan-3-yl)-3-(((2R,7aS)-2-fluorotetrahydro-1H-pyrrolizin-7a(5H)-yl)methoxy)imidazo[1′,2′:1,6]pyrido[3,2-d]pyrimidin-6-yl)-5,6-difluoronaphthalen-2-ol], for which the “GDP-KRAS G12D (ΔTmD, ° C.)” value in assay [1] was determined as 6.05 °C. For the same compound, in assay [2], the “GppNHp-KRAS G12D (ΔTmD, ° C.)” value was 1.90 °C. Moreover, half-maximal inhibition in assay [3] (IC50) was put at 1.42 µM.

As for `C#Cc1c(F)ccc2cc(O)cc(-c3c(F)c4nc(OC[C@@]56CCCN5C/C(=C\F)C6)nc(N5C[C@H]6CC[C@@H](C5)N6)c4c4cc(C)oc34)c12` [Example 64, 4-(1-((1R,5S)-3,8-diazabicyclo[3.2.1]octan-3-yl)-5-fluoro-3-(((S,Z)-2-(fluoromethylene)tetrahydro-1H-pyrrolizin-7a(5H)-yl)methoxy)-8-methylfuro[3,2-n]quinazolin-6-yl)-5-ethynyl-6-fluoronaphthalen-2-ol], in assay [1], the “GDP-KRAS G12D (ΔTmD, ° C.)” value was 15.24 °C. Further, the “GppNHp-KRAS G12D (ΔTmD, ° C.)” value in assay [2] was 11.39 °C. Besides, 0.062 µM corresponded to half-maximal inhibition in assay [3] (IC50).

As for `Cc1cc2c(o1)c(-c1ccc(F)c3sc(N)c(C#N)c13)c(F)c1nc(OC[C@@]34CCCN3C[C@H](F)C4)nc(N3C[C@H]4CC[C@@H](C3)N4)c12` [Example 62, 4-(1-((1R,5S)-3,8-diazabicyclo[3.2.1]octan-3-yl)-5-fluoro-3-(((2R,7aS)-2-fluorotetrahydro-1H-pyrrolizin-7a(5H)-yl)methoxy)-8-methylfuro[3,2-f]quinazolin-6-yl)-2-amino-7-fluorobenzo[b]thiophene-3-carbonitrile], the “GDP-KRAS G12D (ΔTmD, ° C.)” value in assay [1] stood at 9.01 °C. Further, in assay [2], the “GppNHp-KRAS G12D (ΔTmD, ° C.)” value was determined as 8.57 °C. This compound also registered an IC50 in assay [3] of 0.631 µM.

As to `CN(C)C1(CNc2nc(OC[C@@]34CCCN3C[C@H](F)C4)nc3cc(-c4cc(O)cc5ccc(F)c(F)c45)c4nccn4c23)CCC1` [Example 5, 4-(1-(((1-(dimethylamino)cyclobutyl)methyl)amino)-3-(((2R,7aS)-2-fluorotetrahydro-1H-pyrrolizin-7a(5H)-yl)methoxy)imidazo[1′,2′:1,6]pyrido[3,2-d]pyrimidin-6-yl)-5,6-difluoronaphthalen-2-ol], in assay [1], the “GDP-KRAS G12D (ΔTmD, ° C.)” value was determined as 4.27 °C. The “GppNHp-KRAS G12D (ΔTmD, ° C.)” value in assay [2] was 1.60 °C. In assay [3], it took 0.953 µM to reach half-maximal inhibition (IC50).

The compound `Cc1cc2c(o1)c(-c1cc(O)cc3ccccc13)c(F)c1nc(OC[C@@]34CCCN3C[C@H](F)C4)nc(NCC3(N(C)C)CCC3)c12` [Example 47, 4-(1-(((1-(dimethylamino)cyclobutyl)methyl)amino)-5-fluoro-3-(((2R,7aS)-2-fluorotetrahydro-1H-pyrrolizin-7a(5H)-yl)methoxy)-8-methylfuro[3,2-n]quinazolin-6-yl)naphthalen-2-ol] had an IC50 in assay [3] of 7.98 µM.

By IC50 is commonly meant the concentration needed to halve the response being measured. High values mean a need for much substance, low ones inhibition by little substance.
